Among the data in the supplement of paper PMC10307832 are relative viability values, retold here.

Assay in all cases: relative viability (nuclei count vs DMSO), 5 days (fraction); higher = more cells survive
Compound in experiment [1]: C1=CC2=NC=CN=C2C=C1/C=C/3\C(=O)NC(=O)S3 + COc1cc2c(Oc3ccc(NC(=O)C4(C(=O)Nc5ccc(F)cc5)CC4)cc3F)ccnc2cc1OCCCN1CCOCC1 [Foretinib] (partner 0.25 µM)
The method, boiled down: (§1)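 Dosing by pin tool came one day after lung cancer cell lines were seeded in 1536-well plates, using either one drug or a fixed anchor-drug dose plus five library-drug doses (not always all listed) in √10 steps. After 5 days, nuclei were counted on 4× images. Relative viability is treated-well nuclei count divided by vehicle-well nuclei count, and values are medians of duplicate plates.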

Compound in experiment [2]: C1=CC2=NC=CN=C2C=C1/C=C/3\C(=O)NC(=O)S3 + CS(=O)(=O)CCNCc1ccc(-c2ccc3ncnc(Nc4ccc(OCc5cccc(F)c5)c(Cl)c4)c3c2)o1 [Lapatinib] (partner 2 µM)
The method, boiled down: as §1

Compound in experiment [3]: CCN1CCN(c2ccc(Nc3cc(N(C)C(=O)Nc4c(Cl)c(OC)cc(OC)c4Cl)ncn3)cc2)CC1 [BGJ398] + COc1cccc2cc(-c3nc([C@H]4CC[C@H](C(=O)O)CC4)n4ncnc(N)c34)[nH]c12 [OSI-027] (partner 0.5 µM)
In a few lines: as §1

Compound in experiment [4]: CCN1CCN(c2ccc(Nc3cc(N(C)C(=O)Nc4c(Cl)c(OC)cc(OC)c4Cl)ncn3)cc2)CC1 [BGJ398] + NC(=O)Nc1cc(-c2cccc(F)c2)sc1C(=O)N[C@H]1CCCNC1 [AZD7762] (partner 0.2 µM)
The method, boiled down: as §1

For the cell line HCC-827, the relative viability came to 1.09 in experiment [1] (first compound 0.02 µM); 1.05 in experiment [1] (first compound 0.06325 µM); 1.02 in experiment [1] (first compound 0.2 µM); 0.95 in experiment [1] (first compound 0.6325 µM); 1.04 in experiment [1] (first compound 2 µM); 0.217 in experiment [2] (first compound 0.02 µM). Moreover, the relative viability in experiment [2] (first compound 0.06325 µM) turned out to be 0.247; in experiment [2] (first compound 0.2 µM), 0.209; in experiment [2] (first compound 0.6325 µM), 0.215; in experiment [2] (first compound 2 µM) it was 0.233; in experiment [3] (first compound 0.01 µM), 0.633; in experiment [3] (first compound 0.1 µM), 0.754. Further, the relative viability in experiment [3] (first compound 0.3162 µM) turned out to be 0.547; in experiment [3] (first compound 1 µM), 0.847; in experiment [4] (first compound 0.01 µM) it was 0.26; in experiment [4] (first compound 0.1 µM), 0.212; in experiment [4] (first compound 0.3162 µM), 0.121; in experiment [4] (first compound 1 µM), 0.256.
Take HOP-62: the relative viability turned out to be 1.06 in experiment [1] (first compound 0.02 µM); 1.22 in experiment [1] (first compound 0.06325 µM); 1.11 in experiment [1] (first compound 0.2 µM); 1.01 in experiment [1] (first compound 0.6325 µM); 1.07 in experiment [1] (first compound 2 µM); 1.04 in experiment [2] (first compound 0.02 µM). The relative viability in experiment [2] (first compound 0.06325 µM) came to 0.796; in experiment [2] (first compound 0.2 µM), 0.944; in experiment [2] (first compound 0.6325 µM), 1.05; in experiment [2] (first compound 2 µM) it was 0.958; in experiment [3] (first compound 0.01 µM), 0.792; in experiment [3] (first compound 0.03162 µM) it was 0.986. For the same cell line, the relative viability in experiment [3] (first compound 0.1 µM) turned out to be 0.916; in experiment [3] (first compound 0.3162 µM), 0.83; in experiment [3] (first compound 1 µM), 0.889; in experiment [4] (first compound 0.01 µM) it was 0.651; in experiment [4] (first compound 0.03162 µM) it was 0.703; in experiment [4] (first compound 0.1 µM) it was 0.829. Further, the relative viability in experiment [4] (first compound 0.3162 µM) was determined as 0.601; in experiment [4] (first compound 1 µM) it was 0.916.
Consider LC-2-ad, for which the relative viability in experiment [1] (first compound 0.02 µM) turned out to be 0.889; in experiment [1] (first compound 0.06325 µM) it was 0.951; in experiment [1] (first compound 0.2 µM) it was 0.995; in experiment [1] (first compound 0.6325 µM), 0.917; in experiment [1] (first compound 2 µM) it was 0.699; in experiment [2] (first compound 0.02 µM), 0.927. The relative viability in experiment [2] (first compound 0.06325 µM) was 1.04; in experiment [2] (first compound 0.2 µM) it was 0.949; in experiment [2] (first compound 0.6325 µM) it was 0.924; in experiment [2] (first compound 2 µM), 0.797; in experiment [3] (first compound 0.01 µM), 0.763; in experiment [3] (first compound 0.03162 µM) it was 0.935. Also, the relative viability stood at 0.832 in experiment [3] (first compound 0.1 µM); 0.779 in experiment [3] (first compound 0.3162 µM); 0.829 in experiment [3] (first compound 1 µM); 0.886 in experiment [4] (first compound 0.01 µM); 0.802 in experiment [4] (first compound 0.03162 µM); 0.852 in experiment [4] (first compound 0.1 µM). The figures for the relative viability in experiment [4] (first compound 0.3162 µM) and in experiment [4] (first compound 1 µM) were 0.893 and 0.957, respectively.
On to LCLC-97TM1, for which the relative viability was 0.919 in experiment [1] (first compound 0.02 µM); 0.908 in experiment [1] (first compound 0.06325 µM); 0.908 in experiment [1] (first compound 0.2 µM); 0.996 in experiment [1] (first compound 0.6325 µM); 0.688 in experiment [1] (first compound 2 µM); 0.751 in experiment [2] (first compound 0.02 µM). For the same cell line, the relative viability turned out to be 1.12 in experiment [2] (first compound 0.06325 µM); 1.73 in experiment [2] (first compound 0.2 µM); 0.817 in experiment [2] (first compound 0.6325 µM); 0.27 in experiment [2] (first compound 2 µM); 0.381 in experiment [3] (first compound 0.01 µM); 0.578 in experiment [3] (first compound 0.03162 µM). The relative viability is 0.464 in experiment [3] (first compound 0.1 µM); 0.567 in experiment [3] (first compound 0.3162 µM); 0.528 in experiment [3] (first compound 1 µM); 0.251 in experiment [4] (first compound 0.01 µM); 0.217 in experiment [4] (first compound 0.03162 µM); 0.225 in experiment [4] (first compound 0.1 µM). In addition, the figures for the relative viability in experiment [4] (first compound 0.3162 µM) and in experiment [4] (first compound 1 µM) were 0.208 and 0.249, respectively.
